Assay type in all cases: biochemical
Assay [1] concerns the target T1, MMP-2 (Gelatinase A) (Homo sapiens, UniProt P08253).
T1 sequence (P08253 110-660): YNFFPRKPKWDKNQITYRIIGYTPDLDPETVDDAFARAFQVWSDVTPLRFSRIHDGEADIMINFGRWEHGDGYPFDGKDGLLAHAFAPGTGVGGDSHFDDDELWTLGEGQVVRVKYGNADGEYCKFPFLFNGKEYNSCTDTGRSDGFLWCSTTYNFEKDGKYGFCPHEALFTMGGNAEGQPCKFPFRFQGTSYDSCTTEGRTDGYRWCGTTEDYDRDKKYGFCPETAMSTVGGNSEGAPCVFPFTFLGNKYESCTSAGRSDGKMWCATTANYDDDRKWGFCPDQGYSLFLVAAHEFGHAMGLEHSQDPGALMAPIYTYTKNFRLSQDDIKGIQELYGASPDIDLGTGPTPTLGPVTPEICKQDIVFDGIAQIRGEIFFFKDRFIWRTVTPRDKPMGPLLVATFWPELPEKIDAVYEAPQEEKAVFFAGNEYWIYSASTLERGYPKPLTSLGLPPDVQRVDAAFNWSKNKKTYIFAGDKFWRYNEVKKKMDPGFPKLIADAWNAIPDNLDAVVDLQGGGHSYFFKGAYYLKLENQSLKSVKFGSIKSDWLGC
The assay can be described thus: inhibition of MMP-2 hydrolysis of thiopeptolide substrate. Particulars: thiopeptolide substrate, pH 6.0, 22° C.; read-out: (IC50) MMP-2.

Assay [2] addresses MMP-3 (stromelysin) (Homo sapiens, UniProt P08254). The assay can be described thus: inhibition of MMP-3 hydrolysis of thiopeptolide substrate. Particulars: thiopeptolide substrate, pH 6.0, 22° C.; read-out: (IC50) MMP-3. The text has this: The assays measure the amount by which a test compound reduces the hydrolysis of a thiopeptolide substrate caused by a matrix metalloproteinase enzyme. Such assays are described in detail by Ye, et al., in Biochemistry, 1992;31(45):11231-11235).
Thiopeptolide substrates show virtually no decomposition or hydrolysis in the absence of a matrix metalloproteinase enzyme. A typical thiopeptolide substrate commonly utilized for assays is Ac-Pro-Leu-Gly-thioester-Len-Len-Gly-O Et. […] Assays are carried out with and without matrix metalloproteinase inhibitor compounds, and the amount of hydrolysis is compared for a determination of inhibitory activity of the test compounds.
In the table, MMP-1 refers to interstitial collagenase; MMP-2 refers to Gelatinase A; MMP-3 refers to stromelysin; MMP-7 refers to matrilysin; and MMP-13 refers to Collagenase 3.

The target of assay [3] is MMP-13 (Collagenase 3) (Homo sapiens, UniProt P45452). The assay can be described thus: inhibition of MMP-13 hydrolysis of thiopeptolide substrate. Conditions: thiopeptolide substrate, pH 6.0, 22° C.; read-out: (IC50) MMP-13. The text has this:
(§1) The invention compounds have been evaluated in standard in vitro assays and shown to be potent inhibitors of several matrix metalloproteinase enzymes.

Assay [4] deals with T2, full-length collagenase (FLC) (Homo sapiens, UniProt P03956).
T2 construct: full-length collagenase hydrolysis of thiopeptolide substrate (FLC)
T2 sequence (P03956 100-469): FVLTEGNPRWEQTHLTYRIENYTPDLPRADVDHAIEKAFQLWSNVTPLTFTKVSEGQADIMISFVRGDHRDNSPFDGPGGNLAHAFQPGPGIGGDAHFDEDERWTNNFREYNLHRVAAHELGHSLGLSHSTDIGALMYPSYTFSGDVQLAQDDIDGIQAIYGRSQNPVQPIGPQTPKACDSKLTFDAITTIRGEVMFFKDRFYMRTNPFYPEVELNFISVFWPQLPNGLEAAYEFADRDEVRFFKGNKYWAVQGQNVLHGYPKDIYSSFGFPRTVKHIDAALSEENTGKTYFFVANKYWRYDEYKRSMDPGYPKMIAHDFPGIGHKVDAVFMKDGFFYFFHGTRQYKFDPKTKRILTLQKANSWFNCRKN
The assay can be described thus: inhibition of full-length collagenase hydrolysis of thiopeptolide substrate.
Text: as §1
(§2) The compounds were additionally evaluated for their ability to inhibit full-length collagenase hydrolysis of thiopeptolide substrate (FLC) and full-length gelatinase B (FLGB) hydrolysis of thiopeptolide.

For assay [5], the target named is T3, full-length gelatinase B (FLGB) (Homo sapiens, UniProt P14780).
T3 construct: full-length gelatinase B (FLGB) hydrolysis of thiopeptolide
T3 sequence (P14780 94-707): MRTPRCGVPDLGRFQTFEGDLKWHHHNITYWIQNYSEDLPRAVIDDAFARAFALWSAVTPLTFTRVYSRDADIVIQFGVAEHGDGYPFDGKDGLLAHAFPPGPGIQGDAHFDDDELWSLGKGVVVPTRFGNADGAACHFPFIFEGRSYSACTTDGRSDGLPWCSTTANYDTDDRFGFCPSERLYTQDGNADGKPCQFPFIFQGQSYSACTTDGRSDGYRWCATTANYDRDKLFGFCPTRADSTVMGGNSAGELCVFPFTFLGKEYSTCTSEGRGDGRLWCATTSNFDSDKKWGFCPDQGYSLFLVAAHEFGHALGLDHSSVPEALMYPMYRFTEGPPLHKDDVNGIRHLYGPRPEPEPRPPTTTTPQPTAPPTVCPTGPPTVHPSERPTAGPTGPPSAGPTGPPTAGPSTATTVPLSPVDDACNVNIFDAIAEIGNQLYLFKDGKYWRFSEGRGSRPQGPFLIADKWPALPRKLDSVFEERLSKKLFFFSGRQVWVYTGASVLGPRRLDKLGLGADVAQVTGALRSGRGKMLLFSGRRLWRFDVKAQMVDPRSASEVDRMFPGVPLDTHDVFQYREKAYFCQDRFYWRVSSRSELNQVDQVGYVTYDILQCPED
The assay can be described thus: inhibition of full-length gelatinase B hydrolysis of thiopeptolide.
Text: as §1, §2

The target in assay [6] is T4, MMP-1 (interstitial collagenase) (Homo sapiens, UniProt P03956).
T4 sequence (P03956 100-469): T2 sequence (P03956 100-469)
The assay can be described thus: inhibition of MMP-1 hydrolysis of thiopeptolide substrate. Conditions: pH 6.0, 22° C.
Text: as §1

This is an account of results in patent US6020366A, “Butyric acid matrix metalloproteinase inhibitors” (priority 1998, dated 2000).

Structures are written as SMILES.

MMP-3 (stromelysin), sequence (P08254 100-477): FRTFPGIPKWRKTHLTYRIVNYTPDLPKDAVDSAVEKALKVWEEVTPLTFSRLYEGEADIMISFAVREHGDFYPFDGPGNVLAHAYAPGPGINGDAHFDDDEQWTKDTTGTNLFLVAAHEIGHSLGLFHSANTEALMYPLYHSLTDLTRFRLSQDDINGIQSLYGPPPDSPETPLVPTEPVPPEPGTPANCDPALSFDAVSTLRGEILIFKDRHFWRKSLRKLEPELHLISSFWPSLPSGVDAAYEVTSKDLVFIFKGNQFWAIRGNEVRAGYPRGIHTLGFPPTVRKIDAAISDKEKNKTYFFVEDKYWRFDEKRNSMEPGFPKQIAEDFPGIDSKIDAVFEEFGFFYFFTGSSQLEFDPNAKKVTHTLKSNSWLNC

By IC50 is commonly meant the midpoint of a concentration-inhibition curve. In the case of `O=C(C[C@H](NC(=O)C(F)(F)F)C(=O)O)c1ccc2oc3ccccc3c2c1` [Example 1, (S)-4-Dibenzofuran-2-yl-4-oxo-2-(2,2,2-trifluoroacetylamino)-butyric acid], the IC50 in assay [1] was 59 nM; in assay [2], 950 nM; in assay [3], 2800 nM; in assay [4], above 100000 nM; in assay [5] it was above 100000 nM.
As to `Cc1ccc(S(=O)(=O)N[C@@H](CC(=O)c2ccc3oc4ccccc4c3c2)C(=O)O)cc1` [Example 14, (S) -4-Dibenzofuran-2-yl-4-oxo-2-(4-methylphenylsulfonylamino)-butyric acid], the IC50 in assay [6] was determined as 83000 nM; in assay [1], 17 nM; in assay [2] it was 260 nM; in assay [3] it was 1100 nM.
As to `CC(Oc1ccccc1)C(=O)NC(CC(=O)c1ccc2oc3ccccc3c2c1)C(=O)O` (stereo not shown) [Example 30, 4-Dibenzofuran-2-yl-4-oxo-2-(2-phenoxy-propionylamino)-butyric acid], the concentration for half-maximal inhibition (IC50) in assay [6] came to 45000 nM; in assay [1], 35 nM; in assay [2] it was 100 nM; in assay [3] it was 2900 nM.
